Assay results: US20040156869A1, “2-substituted quinazolin-4-ylamine analogues” (Neurogen Corporation, priority 2002, published 2004)

Biological target: human capsaicin receptor (VR1) (Homo sapiens, UniProt Q8NER1)
Assay: Capsaicin receptor binding assay ([3H]RTX competition, VR1-transfected HEK293 membranes)

Sequence of human capsaicin receptor (VR1) (Q8NER1 whole entry): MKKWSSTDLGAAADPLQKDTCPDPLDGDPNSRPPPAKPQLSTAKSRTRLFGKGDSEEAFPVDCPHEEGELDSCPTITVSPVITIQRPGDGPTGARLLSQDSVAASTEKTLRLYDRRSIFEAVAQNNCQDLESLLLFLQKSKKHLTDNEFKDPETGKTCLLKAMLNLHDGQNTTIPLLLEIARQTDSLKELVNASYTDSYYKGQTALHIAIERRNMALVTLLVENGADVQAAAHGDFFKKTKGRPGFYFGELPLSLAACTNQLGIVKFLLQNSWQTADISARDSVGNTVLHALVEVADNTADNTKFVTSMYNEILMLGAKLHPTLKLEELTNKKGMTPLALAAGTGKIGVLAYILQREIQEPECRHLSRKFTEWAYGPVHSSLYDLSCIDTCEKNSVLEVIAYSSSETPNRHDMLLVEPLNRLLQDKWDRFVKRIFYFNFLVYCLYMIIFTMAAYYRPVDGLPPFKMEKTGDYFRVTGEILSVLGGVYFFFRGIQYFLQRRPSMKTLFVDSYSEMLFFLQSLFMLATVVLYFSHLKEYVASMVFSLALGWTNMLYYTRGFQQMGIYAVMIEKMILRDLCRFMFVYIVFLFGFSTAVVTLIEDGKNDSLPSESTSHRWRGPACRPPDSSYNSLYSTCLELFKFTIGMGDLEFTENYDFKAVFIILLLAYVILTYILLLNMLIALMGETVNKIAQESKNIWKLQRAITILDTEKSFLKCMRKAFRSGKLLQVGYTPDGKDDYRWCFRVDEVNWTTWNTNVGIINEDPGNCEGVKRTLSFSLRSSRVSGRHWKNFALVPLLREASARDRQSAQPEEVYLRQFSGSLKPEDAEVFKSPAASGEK

Ki, < 1 µM:
FC(F)(F)c1ccc(Nc2nc(CCN3CCOCC3)nc3cc(-c4ncccc4C(F)(F)F)ccc23)cc1 [Compound 400, [2-Morpholin-4-ylethyl-7-(3-trifluoromethyl-pyridin-2-yl)-quinazolin-4-yl]-(4-trifluoromethyl-phenyl)-amine]
CC1CCN(CCc2nc(Nc3ccc(C(F)(F)F)cc3)c3ccc(-c4ncccc4C(F)(F)F)cc3n2)CC1 [Compound 401, [2-(4-Methyl-piperidin-1-ylethyl)-7-(3-trifluoromethyl-pyridin-2-yl)-quinazolin-4-yl]-(4-trifluoromethyl-phenyl)-amine]
FC(F)(F)c1ccc(Nc2nc(CCN3CCCCCC3)nc3cc(-c4ncccc4C(F)(F)F)ccc23)cc1 [Compound 402]
FC(F)(F)c1ccc(Nc2nc(CCN3CCSCC3)nc3cc(-c4ncccc4C(F)(F)F)ccc23)cc1 [Compound 403, [2-Thiomorpholin-4-ylethyl-7-(3-trifluoromethyl-pyridin-2-yl)-quinazolin-4-yl]-(4-trifluoromethyl-phenyl)-amine]
CC1(C)CCCN(CCc2nc(Nc3ccc(C(F)(F)F)cc3)c3ccc(-c4ncccc4C(F)(F)F)cc3n2)C1 [Compound 404, [2-(3,3-Dimethyl-piperidin-1-ylethyl)-7-(3-trifluoromethyl-pyridin-2-yl)-quinazolin-4-yl]-(4-trifluoromethyl-phenyl)-amine]
FC(F)(F)c1ccc(Nc2nc(CCN3CCCCCCC3)nc3cc(-c4ncccc4C(F)(F)F)ccc23)cc1 [Compound 405, [2-Azocan-1-ylethyl-7-(3-trifluoromethyl-pyridin-2-yl)-quinazolin-4-yl]-(4-trifluoromethyl-phenyl)-amine]
CC1CCN(CCc2nc(Nc3ccc(C(F)(F)F)cc3)c3ccc(-c4ncccc4C(F)(F)F)cc3n2)CC(C)(C)C1 (stereo not shown) [Compound 406, (4-Trifluoromethyl-phenyl)-{7-(3-trifluoromethyl-pyridin-2-yl)-2-[2-(3,3,5-trimethyl-azepan-1-yl)-ethyl]-quinazolin-4-yl}-amine]
FC(F)(F)c1ccc(Nc2nc(CCN3CCC4(CC3)OCCO4)nc3cc(-c4ncccc4C(F)(F)F)ccc23)cc1 [Compound 407, [2-[2-(1,4-Dioxa-8-aza-spiro[4.5]dec-8-yl)-ethyl]-7-(3-trifluoromethyl-pyridin-2-yl)-quinazolin-4-yl]-(4-trifluoromethyl-phenyl)-amine]
FC(F)(F)c1ccc(Nc2nc(CCN3CCCC4CCCCC43)nc3cc(-c4ncccc4C(F)(F)F)ccc23)cc1 (stereo not shown) [Compound 408, [2-(Octahydro-quinolin-1-ylethyl)-7-(3-trifluoromethyl-pyridin-2-yl)-quinazolin-4-yl]-(4-trifluoromethyl-phenyl)-amine]
CN(C)CCc1nc(Nc2ccc(C(F)(F)F)cc2)c2ccc(-c3ncccc3C(F)(F)F)cc2n1 [Compound 409, [2-Dimethylaminoethyl-7-(3-trifluoromethyl-pyridin-2-yl)-quinazolin-4-yl]-(4-trifluoromethyl-phenyl)-amine]
C=CCN(C)CCc1nc(Nc2ccc(C(F)(F)F)cc2)c2ccc(-c3ncccc3C(F)(F)F)cc2n1 [Compound 410, [2-[(Allyl-methyl-amino)-ethyl]-7-(3-trifluoromethyl-pyridin-2-yl)-quinazolin-4-yl]-(4-trifluoromethyl-phenyl)-amine]
CCN(CC)CCc1nc(Nc2ccc(C(F)(F)F)cc2)c2ccc(-c3ncccc3C(F)(F)F)cc2n1 [Compound 411, [2-Diethylaminoethyl-7-(3-trifluoromethyl-pyridin-2-yl)-quinazolin-4-yl]-(4-trifluoromethyl-phenyl)-amine]
CCCN(C)CCc1nc(Nc2ccc(C(F)(F)F)cc2)c2ccc(-c3ncccc3C(F)(F)F)cc2n1 [Compound 412, [2-[(Propyl-methyl-amino)-ethyl]-7-(3-trifluoromethyl-pyridin-2-yl)-quinazolin-4-yl]-(4-trifluoromethyl-phenyl)-amine]
